Source: PMC10619135, “Virtual screening, identification and in vitro validation of small molecule GDP-mannose dehydrogenase inhibitors” (RSC Chemical Biology, 2023)

Legend:
[1] = target: T1, GDP-mannose dehydrogenase (GMD) (Pseudomonas aeruginosa, UniProt P11759); assay: NADH fluorescence assay, dilution series; assay type: biochemical
T1 construct: gene algD; recombinant GMD

[2] = target: T1, GDP-mannose dehydrogenase (GMD); assay: intact protein ESI-MS; assay type: binding; conditions: covalent; overnight incubation; single adduct; site Lys324 only predicted by docking

T1 sequence (P11759 whole entry): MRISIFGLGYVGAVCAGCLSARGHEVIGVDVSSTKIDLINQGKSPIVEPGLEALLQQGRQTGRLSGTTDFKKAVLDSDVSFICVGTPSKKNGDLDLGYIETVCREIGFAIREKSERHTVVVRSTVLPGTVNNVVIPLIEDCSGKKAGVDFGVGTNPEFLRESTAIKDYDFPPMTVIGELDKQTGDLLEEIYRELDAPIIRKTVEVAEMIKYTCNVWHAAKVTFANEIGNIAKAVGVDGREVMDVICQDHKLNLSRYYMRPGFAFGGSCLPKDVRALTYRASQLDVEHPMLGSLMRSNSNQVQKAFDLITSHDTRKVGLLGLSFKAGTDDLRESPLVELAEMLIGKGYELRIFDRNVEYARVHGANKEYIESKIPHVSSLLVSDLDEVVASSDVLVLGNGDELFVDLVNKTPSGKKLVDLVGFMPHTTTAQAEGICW

CC(=O)C1=C(O)C=C2Oc3c4c(c(C)c(O)c3[C@@]2(C)C1=O)O/C(=C\c1ccc(O)cc1)C4=O [compound 13, 13]
IC50 [1]: 16.7 ± 2.12 µM
intact protein ESI-MS [2]: ESI-MS indicated clear evidence of a single GMD-13 adduct
